Tests used:
Format in all cases: functional
A549 = assay: Anticancer activity against human A549 cells assessed as cell growth inhibition measured after 48 hrs by SRB assay
786-0 = assay: Anticancer activity against human 786-0 cells assessed as cell growth inhibition measured after 48 hrs by SRB assay
[1] = tested on: Panel NCI-60 (60 carcinoma cell lines); assay: Anticancer activity against human Panel NCI-60 (60 carcinoma cell lines) line assessed as cell growth inhibition measured after 48 hrs by SRB assay
SF-295 = assay: Anticancer activity against human SF-295 cells assessed as cell growth inhibition measured after 48 hrs by SRB assay
LOX IMVI = assay: Anticancer activity against human LOX IMVI cells assessed as cell growth inhibition measured after 48 hrs by SRB assay
HCT-116 = assay: Anticancer activity against human HCT-116 cells assessed as cell growth inhibition measured after 48 hrs by SRB assay

Compound	GI50 (A549)	GI50 (786-0)	GI50 [1]	GI50 (SF-295)	GI50 (LOX IMVI)	GI50 (HCT-116)
COC(=O)C[C@@H]1NC(=O)c2cc(OCc3cc(C)cc(C)c3)c(NC(=O)c3cc(OC)c(OC)c(OC)c3)cc2NC1=O	1.81 µM	4.78 µM	3.02 µM	1.5 µM	2.99 µM	2.82 µM
COC(=O)CC[C@@H]1NC(=O)c2cc(Oc3cc(C)cc(C)c3)c(NC(=O)c3cc(OC)c(OC)c(OC)c3)cc2NC1=O	1.26 µM	1.86 µM	1.2 µM	1.1 µM	1.92 µM	2.08 µM
COC(=O)C[C@@H]1NC(=O)c2cc(Oc3cc(C)cc(C)c3)c(NC(=O)c3ccc(OC)c(OC)c3OC)cc2NC1=O	> 50 µM	> 50 µM	> 50 µM	> 50 µM	> 50 µM	> 50 µM
COC(=O)C[C@@H]1NC(=O)c2cc(Oc3cc(C)cc(C)c3)c(NCc3cc(OC)c(OC)c(OC)c3)cc2NC1=O	> 50 µM	> 50 µM	> 50 µM	> 50 µM	> 50 µM	> 50 µM
COC(=O)C[C@@H]1NC(=O)c2cc(C#Cc3cc(C)cc(C)c3)c(NC(=O)c3cc(OC)c(OC)c(OC)c3)cc2NC1=O	> 50 µM	> 50 µM	> 50 µM	> 50 µM	> 50 µM	> 50 µM
CCCCOC(=O)C[C@@H]1NC(=O)c2cc(Oc3cc(C)cc(C)c3)c(NC(=O)c3cc(OC)c(OC)c(OC)c3)cc2NC1=O	1.86 µM	1.91 µM		1.91 µM	3.98 µM	0.51 µM
CCN(CC)C(=O)C[C@@H]1NC(=O)c2cc(Oc3cc(C)cc(C)c3)c(NC(=O)c3cc(OC)c(OC)c(OC)c3Cl)cc2NC1=O	0.017 µM	0.04 µM		0.023 µM	< 0.005 µM	< 0.013 µM
CCN(CC)C(=O)C[C@H]1C(=O)Nc2cc(NC(=O)c3cc(OC)c(OC)c(OC)c3Cl)c(Oc3cc(C)cc(C)c3)cc2C(=O)N1C	0.009 µM	0.01 µM	0.017 µM	0.012 µM	< 0.005 µM	0.013 µM
CCN(CC)C(=O)C[C@H]1C(=O)Nc2cc(NC(=O)c3cc(OC)c(OC)c(OC)c3Cl)c(Oc3cc(C)c(F)c(C)c3)cc2C(=O)N1C	0.021 µM	0.03 µM	0.018 µM	0.019 µM	0.009 µM	0.022 µM
CCc1nc(C[C@@H]2NC(=O)c3cc(Oc4cc(C)cc(C)c4)c(NC(=O)c4cc(OC)c(OC)c(OC)c4)cc3NC2=O)no1	0.27 µM	0.66 µM	0.36 µM	0.12 µM	0.24 µM	0.33 µM
COC(=O)C[C@@H]1NC(=O)c2cc(OCCN3CCOCC3)c(NC(=O)c3cc(OC)c(OC)c(OC)c3)cc2NC1=O	> 50 µM	> 50 µM	> 50 µM	> 50 µM	> 50 µM	> 50 µM
COC(=O)C[C@@H]1NC(=O)c2cc(Oc3cc(C)cc(C)c3)c(NC(=O)c3cc(OC)c(OC)c(OC)c3)cc2NC1=O	0.07 µM	0.07 µM	0.05 µM	0.07 µM	0.02 µM	0.03 µM
CCN(CC)C(=O)C[C@@H]1NC(=O)c2cc(Oc3cc(C)cc(C)c3)c(NC(=O)c3cc(OC)c(OC)c(OC)c3)cc2NC1=O	0.02 µM	0.09 µM	0.03 µM	0.02 µM	0.02 µM	0.02 µM
COc1cc(C(=O)Nc2cc3c(cc2Oc2cc(C)cc(C)c2)C(=O)N[C@@H](CC(=O)N(C)C)C(=O)N3)cc(OC)c1OC	0.14 µM		0.06 µM	0.11 µM	0.02 µM	0.03 µM
COC(=O)C[C@@H]1NC(=O)c2cc(Oc3cccc(N(C)C)c3)c(NC(=O)c3cc(OC)c(OC)c(OC)c3)cc2NC1=O	3.41 µM	14.9 µM	4.68 µM	3.09 µM	5.26 µM	5.25 µM
COC(=O)C[C@@H]1NC(=O)c2cc(Oc3ccc(F)cc3)c(NC(=O)c3cc(OC)c(OC)c(OC)c3)cc2NC1=O	> 50 µM	> 50 µM	> 50 µM	> 50 µM	> 50 µM	> 50 µM
COC(=O)C[C@H]1NC(=O)c2cc(Oc3cc(C)cc(C)c3)c(NC(=O)c3cc(OC)c(OC)c(OC)c3)cc2NC1=O	> 50 µM	> 50 µM	> 50 µM	> 50 µM	> 50 µM	> 50 µM
COC(=O)C[C@@H]1NC(=O)c2cc(Oc3ccccc3)c(NC(=O)c3cc(OC)c(OC)c(OC)c3)cc2NC1=O	> 50 µM	> 50 µM	> 50 µM	> 50 µM	> 50 µM	> 50 µM
COc1cc(C(=O)Nc2cc3c(cc2Oc2cc(C)cc(C)c2)C(=O)N[C@@H](Cc2nnc(C)o2)C(=O)N3)cc(OC)c1OC	1.38 µM	1.42 µM	1.58 µM	0.94 µM	1.28 µM	1.26 µM

From ChEMBL document CHEMBL5214978, “Identification of 1,4-Benzodiazepine-2,5-dione Derivatives as Potential Protein Synthesis Inhibitors with Highly Potent Anticancer Activity” (J Med Chem, 2022)
